Reference: BigSolDB 2.1

O=C(O)Cc1ccc([N+](=O)[O-])cc1
solubility (mole fraction)
Details | 283.15 K | 288.15 K | 293.15 K | 298.15 K | 303.15 K | 308.15 K | 313.15 K | 318.15 K | 323.15 K | 328.15 K
in DMAc | 0.0895 | 0.1 | 0.114 | 0.131 | 0.149 | 0.169 | 0.191 | 0.216 | 0.24 | 0.271
in DMF | 0.161 | 0.178 | 0.2 | 0.225 | 0.251 | 0.28 | 0.311 | 0.342 | 0.377 | 0.417
in acetonitrile | 0.0193 | 0.0223 | 0.0266 | 0.0312 | 0.0375 | 0.0449 | 0.0535 | 0.0639 | 0.0761 | 0.0918
in cyclohexane | 1.2e-05 | 1.69e-05 | 2.3e-05 | 3.11e-05 | 4.12e-05 | 5.45e-05 | 7.11e-05 | 9e-05 | 0.000113 | 0.00014
in ethanol | 0.0758 | 0.0849 | 0.0979 | 0.111 | 0.128 | 0.148 | 0.17 | 0.196 | 0.223 | 0.254
in ethyl acetate | 0.0309 | 0.0352 | 0.041 | 0.0487 | 0.0576 | 0.0694 | 0.0823 | 0.098 | 0.116 | 0.137
in ethylene glycol | 0.0168 | 0.0185 | 0.0213 | 0.0254 | 0.0301 | 0.0361 | 0.0428 | 0.0503 | 0.0596 | 0.0723
in isobutanol | 0.025 | 0.0282 | 0.0323 | 0.0389 | 0.0464 | 0.0554 | 0.0658 | 0.0776 | 0.0917 | 0.11
in isopropanol | 0.028 | 0.031 | 0.0373 | 0.0455 | 0.0542 | 0.065 | 0.0768 | 0.0914 | 0.109 | 0.131
in methanol | 0.125 | 0.137 | 0.155 | 0.174 | 0.195 | 0.218 | 0.245 | 0.274 | 0.305 | 0.341
in n-butanol | 0.0498 | 0.0564 | 0.0653 | 0.0758 | 0.0877 | 0.101 | 0.117 | 0.135 | 0.156 | 0.178
in n-propanol | 0.0518 | 0.0589 | 0.0683 | 0.0784 | 0.0916 | 0.106 | 0.124 | 0.145 | 0.168 | 0.193
in water | 0.000141 | 0.00017 | 0.000209 | 0.000264 | 0.000336 | 0.000422 | 0.000528 | 0.000663 | 0.000816 | 0.00101
